Experimental data reported in patent publication US8426345B2, “Method of drug design” (Alchemia Limited, priority 2005, dated 2013).

Biological target: T1, Human SST5 somatostatin receptor (Homo sapiens, UniProt P35346)
T1 construct: expressed in transfected cells; host or cells: HEK-293 EBNA cells (membranes)
Experiment: Filter plate radio-ligand binding assay for SST5 receptor ([125I]SST-14 displacement)
Settings: for % SST5 radio-ligand binding displaced at conc 0.25: conc 0.25 μM; for % SST5 radio-ligand binding displaced at conc 1.0: conc 1.0 μM; for % SST5 radio-ligand binding displaced at conc 0.001: conc 0.001 μM; for % SST5 radio-ligand binding displaced at conc 0.10: conc 0.10 μM; for % SST5 radio-ligand binding displaced at conc 10: conc 10 μM; for % SST5 radio-ligand binding displaced at conc 0.5: conc 0.5 μM

[1] = compound conc 50 μM, 2P library
[2] = compound conc 250 μM, 2P library
[3] = compound conc 500 μM, 2P library

T1 sequence (P35346 whole entry): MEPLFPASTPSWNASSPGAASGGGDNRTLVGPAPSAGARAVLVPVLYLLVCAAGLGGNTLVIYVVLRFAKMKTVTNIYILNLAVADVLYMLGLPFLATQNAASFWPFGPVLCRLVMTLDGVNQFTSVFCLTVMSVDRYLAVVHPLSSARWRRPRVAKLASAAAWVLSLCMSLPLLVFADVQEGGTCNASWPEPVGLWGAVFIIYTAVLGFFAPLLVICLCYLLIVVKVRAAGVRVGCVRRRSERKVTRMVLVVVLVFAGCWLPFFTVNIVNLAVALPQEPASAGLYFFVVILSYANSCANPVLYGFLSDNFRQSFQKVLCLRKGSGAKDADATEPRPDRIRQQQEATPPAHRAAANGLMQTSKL

Compound: COC[C@H]1OC(OCc2ccc3ccccc3c2)[C@H](NC(=O)CCN)[C@@H](OCc2ccc(Cl)cc2)[C@@H]1O (single isomer, unassigned) [Compound 89]
- % SST5 radio-ligand binding displaced at conc 0.25 (3P library): − (% SST5 radio-ligand binding displaced at cone (μM) −<40%)
- % SST5 radio-ligand binding displaced at conc 1.0 (3P library): − (% SST5 radio-ligand binding displaced at cone (μM) −<40%)

Compound: COC[C@H]1O[C@@H](OCc2ccc3ccccc3c2)[C@H](NC(=O)CCN)[C@H](OC)[C@@H]1O [Compound 62]
- % SST5 radio-ligand binding displaced at conc 50 (conc 50 μM, 3P library): − (% SST5 radio-ligand binding displaced at cone (μM) −<40%)
- % SST5 radio-ligand binding displaced at conc 250 (conc 250 μM, 3P library): ++ (% SST5 radio-ligand binding displaced at conc (μM) >60%)
- % SST5 radio-ligand binding displaced at conc 500 (conc 500 μM, 3P library): ++ (% SST5 radio-ligand binding displaced at conc (μM) >60%)

Compound: NCCCC(=O)N[C@H]1[C@@H](OCc2ccc3ccccc3c2)O[C@H](COCc2ccc3ccccc3c2)[C@@H](O)[C@@H]1OCc1ccc(Cl)cc1 [Compound 135]
- % SST5 radio-ligand binding displaced at conc 0.25 (3P library): − (% SST5 radio-ligand binding displaced at cone (μM) −<40%)
- % SST5 radio-ligand binding displaced at conc 1.0 (3P library): ++ (% SST5 radio-ligand binding displaced at conc (μM) >60%)

Compound: COCC1OC(OCc2ccc3ccccc3c2)C(NC(=O)CCCN)C(OCc2ccc3ccccc3c2)C1O (mixture of isomers) [Compound 129]
- % SST5 radio-ligand binding displaced at conc 0.001 (3P library): − (% SST5 radio-ligand binding displaced at cone (μM) −<40%)
- % SST5 radio-ligand binding displaced at conc 0.10 (3P library): + (% SST5 radio-ligand binding displaced at cone (μM) 60>+>40%)
- % SST5 radio-ligand binding displaced at conc 0.25 (3P library): − (% SST5 radio-ligand binding displaced at cone (μM) −<40%)
- % SST5 radio-ligand binding displaced at conc 1.0 (3P library): ++ (% SST5 radio-ligand binding displaced at conc (μM) >60%)
- % SST5 radio-ligand binding displaced at conc 10 (3P library): ++ (% SST5 radio-ligand binding displaced at conc (μM) >60%)

Compound: COCC1OC(OCc2ccc3ccccc3c2)C(NC(=O)CCCN)C(OCc2ccc(Cl)cc2)C1O (mixture of isomers) [Compound 133]
- % SST5 radio-ligand binding displaced at conc 10 (3P library): ++ (% SST5 radio-ligand binding displaced at conc (μM) >60%)

Compound: COC[C@H]1O[C@H](OCc2ccc3ccccc3c2)[C@H](NC(=O)CCN)[C@@H](OCc2ccc(Cl)cc2Cl)[C@@H]1O [Compound 115]
- % SST5 radio-ligand binding displaced at conc 0.25 (3P library): + (% SST5 radio-ligand binding displaced at cone (μM) 60>+>40%)
- % SST5 radio-ligand binding displaced at conc 1.0 (3P library): ++ (% SST5 radio-ligand binding displaced at conc (μM) >60%)

Compound: COC1C(O)C(COCc2ccc(-c3ccccc3)cc2)OC(OCc2ccc(Cl)cc2)C1NC(=O)CN (mixture of isomers) [Compound 178]
- % SST5 radio-ligand binding displaced at conc 0.25 (3P library): − (% SST5 radio-ligand binding displaced at cone (μM) −<40%)
- % SST5 radio-ligand binding displaced at conc 1.0 (3P library): − (% SST5 radio-ligand binding displaced at cone (μM) −<40%)

Compound: NCCC(=O)NC1C(OCc2ccc3ccccc3c2)OC(COCc2ccc3ccccc3c2)C(O)C1OCc1ccc(Cl)cc1 (mixture of isomers) [Compound 70]
- % SST5 radio-ligand binding displaced at conc 0.25 (3P library): − (% SST5 radio-ligand binding displaced at cone (μM) −<40%)
- % SST5 radio-ligand binding displaced at conc 1.0 (3P library): + (% SST5 radio-ligand binding displaced at cone (μM) 60>+>40%)

Compound: COC[C@H]1O[C@H](OCc2ccc3ccccc3c2)[C@H](NC(=O)CCN2CCCCC2)[C@@H](OCc2ccc3ccccc3c2)[C@@H]1O [Compound 102]
- % SST5 radio-ligand binding displaced at conc 0.25 (3P library): − (% SST5 radio-ligand binding displaced at cone (μM) −<40%)
- % SST5 radio-ligand binding displaced at conc 1.0 (3P library): − (% SST5 radio-ligand binding displaced at cone (μM) −<40%)

Compound: COC1C(O)C(COCc2ccccc2)OC(OCc2ccc3ccccc3c2)C1NC(=O)CCCN (mixture of isomers) [Compound 123]
- % SST5 radio-ligand binding displaced at conc 0.5 (3P library): − (% SST5 radio-ligand binding displaced at cone (μM) −<40%)
- % SST5 radio-ligand binding displaced at conc 10 (3P library): − (% SST5 radio-ligand binding displaced at cone (μM) −<40%)

Compound: COC1C(O)C(COCc2ccc3ccccc3c2)OC(OCc2ccc3ccccc3c2)C1NC(=O)CCCN (mixture of isomers) [Compound 122]
- % SST5 radio-ligand binding displaced at conc 0.5 (3P library): ++ (% SST5 radio-ligand binding displaced at conc (μM) >60%)
- % SST5 radio-ligand binding displaced at conc 10 (3P library): ++ (% SST5 radio-ligand binding displaced at conc (μM) >60%)

Compound: COC[C@H]1O[C@H](OCc2ccc(Cl)cc2)[C@H](NC(=O)CCN)[C@@H](OC)[C@@H]1O [Compound 19]
- % SST5 radio-ligand binding displaced at conc 50 [1]: − (% SST5 radio-ligand binding displaced at cone (μM) −<40%)
- % SST5 radio-ligand binding displaced at conc 250 [2]: − (% SST5 radio-ligand binding displaced at cone (μM) −<40%)
- % SST5 radio-ligand binding displaced at conc 500 [3]: ++ (% SST5 radio-ligand binding displaced at conc (μM) >60%)

Compound: CO[C@H]1[C@H](O)[C@@H](COCc2ccc(-c3ccccc3)cc2)OC(OCc2ccc3ccccc3c2)[C@@H]1NC(=O)CCN (single isomer, unassigned) [Compound 96]
- % SST5 radio-ligand binding displaced at conc 0.25 (3P library): − (% SST5 radio-ligand binding displaced at cone (μM) −<40%)
- % SST5 radio-ligand binding displaced at conc 1.0 (3P library): − (% SST5 radio-ligand binding displaced at cone (μM) −<40%)

Compound: CO[C@H]1[C@H](O)[C@@H](COCc2ccc(Cl)cc2)O[C@@H](SC)[C@@H]1NC(=O)CCN [Compound 15]
- % SST5 radio-ligand binding displaced at conc 50 [1]: − (% SST5 radio-ligand binding displaced at cone (μM) −<40%)
- % SST5 radio-ligand binding displaced at conc 250 [2]: − (% SST5 radio-ligand binding displaced at cone (μM) −<40%)
- % SST5 radio-ligand binding displaced at conc 500 [3]: − (% SST5 radio-ligand binding displaced at cone (μM) −<40%)

Compound: COCC1OC(OCc2ccc3ccccc3c2)C(NC(=O)CCCN)C(OCc2ccc(Cl)cc2)C1O (mixture of isomers) [Compound 127]
- % SST5 radio-ligand binding displaced at conc 0.001 (3P library): − (% SST5 radio-ligand binding displaced at cone (μM) −<40%)
- % SST5 radio-ligand binding displaced at conc 0.10 (3P library): − (% SST5 radio-ligand binding displaced at cone (μM) −<40%)
- % SST5 radio-ligand binding displaced at conc 0.5 (3P library): ++ (% SST5 radio-ligand binding displaced at conc (μM) >60%)
- % SST5 radio-ligand binding displaced at conc 1.0 (3P library): ++ (% SST5 radio-ligand binding displaced at conc (μM) >60%)
- % SST5 radio-ligand binding displaced at conc 10 (3P library): ++ (% SST5 radio-ligand binding displaced at conc (μM) >60%)

Compound: COC[C@H]1O[C@H](OCc2ccc3ccccc3c2)[C@H](NC(=O)CCCN)[C@@H](OCc2cccc3ccccc23)[C@@H]1O [Compound 151]
- % SST5 radio-ligand binding displaced at conc 0.25 (3P library): + (% SST5 radio-ligand binding displaced at cone (μM) 60>+>40%)
- % SST5 radio-ligand binding displaced at conc 1.0 (3P library): ++ (% SST5 radio-ligand binding displaced at conc (μM) >60%)

Compound: COC[C@H]1O[C@H](OCc2ccc3ccccc3c2)[C@H](NC(=O)CCC(C)N)[C@@H](OCc2ccc3ccccc3c2)[C@@H]1O (some centres unmarked) [Compound 140]
- % SST5 radio-ligand binding displaced at conc 0.25 (3P library): ++ (% SST5 radio-ligand binding displaced at conc (μM) >60%)
- % SST5 radio-ligand binding displaced at conc 1.0 (3P library): ++ (% SST5 radio-ligand binding displaced at conc (μM) >60%)

Compound: COC[C@H]1O[C@@H](SC)[C@H](NC(=O)CCCN)[C@H](OCc2ccc(Cl)cc2)[C@@H]1O [Compound 43]
- % SST5 radio-ligand binding displaced at conc 50 [1]: − (% SST5 radio-ligand binding displaced at cone (μM) −<40%)
- % SST5 radio-ligand binding displaced at conc 250 [2]: − (% SST5 radio-ligand binding displaced at cone (μM) −<40%)
- % SST5 radio-ligand binding displaced at conc 500 [3]: − (% SST5 radio-ligand binding displaced at cone (μM) −<40%)

Compound: COC[C@H]1O[C@@H](OCc2ccc(Cl)cc2)[C@H](NC(=O)CCN)[C@@H](OC)[C@@H]1O [Compound 20]
- % SST5 radio-ligand binding displaced at conc 50 [1]: − (% SST5 radio-ligand binding displaced at cone (μM) −<40%)
- % SST5 radio-ligand binding displaced at conc 250 [2]: − (% SST5 radio-ligand binding displaced at cone (μM) −<40%)
- % SST5 radio-ligand binding displaced at conc 500 [3]: + (% SST5 radio-ligand binding displaced at cone (μM) 60>+>40%)

Compound: COC[C@H]1O[C@@H](OCc2ccc(Cl)cc2)[C@H](NC(=O)CCCN)[C@H](OC)[C@@H]1O [Compound 44]
- % SST5 radio-ligand binding displaced at conc 50 [1]: − (% SST5 radio-ligand binding displaced at cone (μM) −<40%)
- % SST5 radio-ligand binding displaced at conc 250 [2]: − (% SST5 radio-ligand binding displaced at cone (μM) −<40%)
- % SST5 radio-ligand binding displaced at conc 500 [3]: ++ (% SST5 radio-ligand binding displaced at conc (μM) >60%)

Compound: COC[C@H]1OC(OCc2ccc3ccccc3c2)[C@H](NC(=O)CCN)[C@@H](OCc2ccccc2)[C@@H]1O (single isomer, unassigned) [Compound 87]
- % SST5 radio-ligand binding displaced at conc 0.25 (3P library): − (% SST5 radio-ligand binding displaced at cone (μM) −<40%)
- % SST5 radio-ligand binding displaced at conc 1.0 (3P library): − (% SST5 radio-ligand binding displaced at cone (μM) −<40%)

Compound: COC[C@H]1OC(OCc2ccc(Cl)cc2)[C@H](NC(=O)CN)[C@@H](OCc2ccccc2)[C@@H]1O (single isomer, unassigned) [Compound 169]
- % SST5 radio-ligand binding displaced at conc 0.25 (3P library): − (% SST5 radio-ligand binding displaced at cone (μM) −<40%)
- % SST5 radio-ligand binding displaced at conc 1.0 (3P library): − (% SST5 radio-ligand binding displaced at cone (μM) −<40%)

Compound: COC[C@H]1O[C@H](OCc2ccc3ccccc3c2)[C@H](NC(=O)CCCN)[C@@H](OC)[C@@H]1O [Compound 119]
- % SST5 radio-ligand binding displaced at conc 50 (conc 50 μM, 3P library): − (% SST5 radio-ligand binding displaced at cone (μM) −<40%)
- % SST5 radio-ligand binding displaced at conc 250 (conc 250 μM, 3P library): + (% SST5 radio-ligand binding displaced at cone (μM) 60>+>40%)
- % SST5 radio-ligand binding displaced at conc 500 (conc 500 μM, 3P library): ++ (% SST5 radio-ligand binding displaced at conc (μM) >60%)

Compound: COCC1OC(OCc2ccc3ccccc3c2)C(NC(=O)CCCN)C(OCc2ccc3ccccc3c2)C1O (mixture of isomers) [Compound 132]
- % SST5 radio-ligand binding displaced at conc 10 (3P library): ++ (% SST5 radio-ligand binding displaced at conc (μM) >60%)

Compound: COCC1OC(OCc2ccc3ccccc3c2)C(NC(=O)CCN)C(OCc2ccc(-c3ccccc3)cc2)C1O (mixture of isomers) [Compound 68]
- % SST5 radio-ligand binding displaced at conc 0.001 (3P library): − (% SST5 radio-ligand binding displaced at cone (μM) −<40%)
- % SST5 radio-ligand binding displaced at conc 0.10 (3P library): − (% SST5 radio-ligand binding displaced at cone (μM) −<40%)
- % SST5 radio-ligand binding displaced at conc 0.25 (3P library): − (% SST5 radio-ligand binding displaced at cone (μM) −<40%)
- % SST5 radio-ligand binding displaced at conc 0.5 (3P library): ++ (% SST5 radio-ligand binding displaced at conc (μM) >60%)
- % SST5 radio-ligand binding displaced at conc 1.0 (3P library): ++ (% SST5 radio-ligand binding displaced at conc (μM) >60%)
- % SST5 radio-ligand binding displaced at conc 10 (3P library): ++ (% SST5 radio-ligand binding displaced at conc (μM) >60%)
